Entries after “also recorded” stand apart in the source; their conditions may differ.
Legend:
R3230 cells [1] = experiment: Clonogenic assay; format: cell-based, rat
From the text: Cells were washed and returned to normal growth medium. 14 days later, colonies were stained with crystal violet and counted.

MCT-1 = biological target: T1, MCT-1 (Rattus norvegicus, UniProt P53987); experiment: 13C NMR of lactate uptake and catabolism to alanine and glutamate in R3230 cells; format: cell-based; details: 5 mM CHC
T1 construct: endogenous in cells; host or cells: R3230 rat mammary carcinoma cells
T1 sequence (P53987 1-494): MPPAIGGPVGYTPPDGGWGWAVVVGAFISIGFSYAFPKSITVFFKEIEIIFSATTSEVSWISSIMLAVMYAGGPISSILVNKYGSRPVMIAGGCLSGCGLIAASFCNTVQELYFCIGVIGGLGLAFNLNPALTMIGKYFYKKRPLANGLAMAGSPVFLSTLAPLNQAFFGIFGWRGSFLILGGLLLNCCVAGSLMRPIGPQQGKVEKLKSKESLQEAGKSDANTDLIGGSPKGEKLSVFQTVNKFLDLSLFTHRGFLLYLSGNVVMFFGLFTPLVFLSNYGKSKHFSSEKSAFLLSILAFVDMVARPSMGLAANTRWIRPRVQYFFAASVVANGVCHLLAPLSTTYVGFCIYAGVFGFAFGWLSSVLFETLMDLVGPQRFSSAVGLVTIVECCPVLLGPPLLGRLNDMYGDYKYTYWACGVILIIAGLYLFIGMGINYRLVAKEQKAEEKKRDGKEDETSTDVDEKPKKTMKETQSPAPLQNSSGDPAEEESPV
Method: ^1H-NMR and ^13C-NMR: R3230 cells were grown to 60% confluency. Cells were washed and exposed to DMEM with varying concentrations of ^13C-methyl labeled L-lactate solution (Sigma, St. Louis, Mo.), without serum and glucose. Cells were washed, mounted with 60% perchloric acid, scraped down, and centrifuged at 8,000 G for 5 min; PBS (20% vol/vol) and 98% deuterated water (10% vol/vol) (Sigma, St. Louis, Mo.) were added to supernatants to a total of 600 uL for NMR. For medium sample analysis, 10% vol/vol deuterated water was added to the medium before NMR analysis. NMR spectra were recorded on a Varian 500 MHz VNMRS spectrometer equipped with a Dell Optiplex 755 data system and a 5 mm Varian inverse probe. ^1H NMR spectra were obtained with a spectral width (SW) of 5.5 kHz, a 67 pulse flip angle (6 us), a 6.4 s acquisition time (AT), a 2 sec water presaturation pulse and relaxation delay (RD), and digitized using 64000 points to obtain a digital resolution of 0.172 Hz per point. ^1H-decoupled ^13C spectra were recorded at 125 MHz with a 32051.3 Hz SW, a 60 pulse flip angle (6.5 us), a 2.0 s AT, a 0.7 s RD and digitized into 130,000 points to yield a digital resolution of 0.493 Hz per point.

R3230 Ac = experiment: Uptake kinetics of 14C-lactate or 14C-glucose in vivo (3-compartment model); set-up: species or system rat; details: 14C-labeled metabolite infused i.v., fitted rate constant
Method: Uptake kinetics of ^14C-lactate in vivo: Kinetics of ^14C-lactate or ^14C-glucose uptake were studied using a novel implantable fiber optic radiation detection probe provided by Sicel Technologies Inc., Durham, N.C. Time uptake curves from tumor, subcutaneous, and blood compartments were analyzed using a 3-compartment model from which were derived parameters related to the transfer coefficients in and out of the tumor and blood clearance (see Supplemental methods for detail). The apparatus detected beta radiation from ^14C, which is proportional to ^14 C-lactate or ^14C-glucose concentration. Probes were inserted into tumors of anesthetized rats (Isoflurane as above) and subcutaneous tissue as a control. Each probe was calibrated using ^14C-glucose solutions of known concentration (μCi/mL) immediately before the experiment. After a stabilization period of 50 min, 50 μCi of ^14C-lactate or ^14C-glucose was infused intravenously. Data were recorded in two-minute intervals over 3 h. Baseline (background, dark current values) were subtracted from each time point.
Normalization to the calibration solution was done to control for variations in probe performance and length of probe used in different tumors. The relationship between photons detected and concentration (μCi/mL) was linear, based on experiments done by the company. Data were graphed as the change in μCi/mL over time, and normalized to dose/body weight (μCi/g) to obtain a standardized uptake value (SUV).
In separate animals, blood samples (300 μL-500 μL) were taken at 0, 4, 7, 10, 15, 25, 30, 60, 100, and 160 minutes from the arterial cannula following ^14C-radioisotope infusion. Samples were centrifuged, and plasma collected and weighed. Plasma activities were measured in a liquid scintillation counter (Packard Tri-Carb 1500, Perkin Elmer Life and Analytical Sciences Inc., Boston Mass.) and isotope concentrations (μCi/g) were calculated. Blood activity data were normalized to dose/body weight. Time uptake curves from tumor, subcutaneous, and blood compartments were analyzed using a 3-compartmental model.
The equations defining tracer kinetics were the following:
dCp/dt=−(k1+k4+k0)Cp+k2Ct+k5Cs (1)
Cp, Ci, and Cs were the tracer concentration in central blood compartment, tumor cells, and subcutaneous tissue, respectively. Ct was the measured compound concentration in tumor. Vb was the vascular volume fraction. Due to the nature of the measurement, the tumor probe collected photon counts from both tumor cells and nearby vasculature. The last equation described vascular contribution to the overall photon counts in the tumor tissue. Ki was the transfer constant between each compartment. The averaged isotope concentration in plasma was used to create an empirical blood curve to be used in the model. […]

R3230 cells [2] = experiment: Measurement of metabolic rates (glucose consumption) in cultured R3230 cells; format: cell-based, rat
Method: (§1) Tissue culture and measurement of metabolic rates: The R3230 rat mammary carcinoma was originally derived from a spontaneous mammary carcinoma of the Fischer 344 rat (Hilf et al, 1965; Lindberg et al, 1996). Cells were exposed to 6% or 0.5% oxygen (Vaupel et al, 1991) at 37° C., and […] in glucose- and serum-free DMEM, while dishes were placed on a slow-moving rocker. Cells were counted and media samples were collected at the beginning and end of the experiment, and analyzed for glucose and lactate content using a CMA microdialysis analyzer (CMA, Sweden).

R3230 cells [3] = experiment: Survival of R3230 cells by counts of attached cells; format: cell-based, rat
Method: (F) Effect of Na-lactate concentration on cellular NAD/NADH ratio (expressed as light absorbance ratio, 260/340 nm).
as §1

R3230 cells [4] = experiment: Measurement of redox changes (NAD+/NADH optical density 260/340 nm); format: cell-based, rat; details: within 2 minutes after isovolumic addition
Method: Measurement of redox changes: Cells were trypsinized, washed, and brought to 5×10^6/mL in PBS. 1 mL of cell suspension was scanned for optical density in a cuvette at 260 nm (NAD^+) and 340 nm (NADH+H^+). Various concentrations of Na-lactate in PBS were added at 20 μL/mL.

R3230 cells [5] = experiment: pHi measurements with BCECF-AM; format: cell-based, rat; details: fluorescent dye BCECF-AM
Method: pHi measurements: Cells were grown on glass coverslides and incubated with BCECF-AM (Invitrogen) at 5 μM for 20 min, and imaged on an inverted fluorescence microscope, with excitation at 440 and 490 nm, emission 535 nm. Ratiometric pH calibration was done in mixture ratios of buffers containing 110 mM K2HPO4 or 135 mM KH2PO4, and 20 mM NaCl, respectively. Nigericin was added at 10 μM (Franck et al, 1996) and pH expressed as ratios of grayscale values from stacks of calibration images taken from the nigericin-treated cells, imaged at 440 and 490 nm (Franck et al, 1996).

Compound	effect on clonogenic survival, higher concentrations of CHC (R3230 cells [1]; any ambient lactate)	effect on clonogenic survival, low concentrations of CHC (R3230 cells [1]; high ambient lactate (>5mM) versus low lactate (0-5 mM))	effect on lactate catabolism to alanine and glutamate (MCT-1; 40 mM 13C-lactate, 24 h, glucose/serum free)	effect on lactate uptake, low lactate (MCT-1; lactate 5 mM)	effect on lactate uptake, high lactate (MCT-1; lactate 40 mM)	K1 Transfer rate into tumor (R3230 Ac; R3230 Ac tumour-bearing rats)	K2 Transfer rate out of tumor (R3230 Ac; R3230 Ac tumour-bearing rats)	K4 Transfer rate into SQ (R3230 Ac; subcutaneous tissue)	K5 Transfer rate out of SQ (R3230 Ac; subcutaneous tissue)	effect of escalated extracellular lactate on glucose consumption (R3230 cells [2]; glucopenic conditions)	inhibition of glucose consumption (R3230 cells [2]; glucose 0.2 mM, 18 hr incubation, 6% O2) [%]	effect on survival under glucose starvation (R3230 cells [3]; lactate 2.5 mM)	Na-lactate concentration leading to decreased survival (counts of attached cells) (R3230 cells [3]; under glucose deprivation) [mM]	effect on NAD+/NADH2+ (reductive stress) (R3230 cells [4])	effect on intracellular pH (R3230 cells [5])
N#CC(=Cc1ccc(O)cc1)C(=O)O [CHC, α-cyano-4-hydroxycinnamate]	cytotoxic, independent of ambient lactate	selectively reduced R3230 clonogenic survival at high ambient lactate	effectively inhibited catabolism of lactate to glutamate and alanine; also recorded: inhibited breakdown of lactate and conversion into alanine and glutamate	effectively inhibited lactate uptake	lactate uptake persisted	–	–	–	–	–	–	–	–	–	–
CC(O)C(=O)O (stereo not drawn) [Lactate, lactate]	–	–	–	–	–	0.2381	0.06182	0.00144	0.07439	inhibited glucose consumption in a concentration-dependent manner	41	rendered a survival advantage	> 2.5	concentration-dependent drop	concentration-dependent reduction of intracellular pH

Source: patent US20130023587A1, “COMPOSITIONS AND METHODS FOR THE TREATMENT OF CANCER” (DUKE UNIVERSITY, priority 2010, published 2013)
